In the NIST ThermoML archive (doi:10.1021/acs.jced.9b00209):
± gives the expanded uncertainty stated by the source.

Key:
[1] = 101.33 kPa, Liquid, Pycnometric method
[2] = Boiling temperature at pressure P; conditions: Liquid, Ebulliometric method (Recirculating still)
[3] = molar heat capacity at saturation pressure; conditions: Liquid, Vacuum adiabatic calorimetry

CC(C)CCOC(=O)C(C)O (configuration not stated) [isopentyl 2-hydroxypropanoate]
Conditions | Boiling temperature at pressure P [°C] | mass density [kg/m3] | molar heat capacity [J/K/mol]
[1], 288.15 K | – | 976 ± 9 | –
[1], 293.65 K | – | 973.5 ± 9 | –
[1], 298.15 K | – | 969.5 ± 9 | –
[1], 303.15 K | – | 965 ± 9 | –
[1], 308.15 K | – | 960.6 ± 9 | –
[1], 315.65 K | – | 954.9 ± 9 | –
[1], 320.15 K | – | 950 ± 9 | –
[1], 326.15 K | – | 945.3 ± 9 | –
[1], 331.65 K | – | 939.8 ± 9 | –
[1], 336.15 K | – | 937.8 ± 9 | –
[1], 341.45 K | – | 931.1 ± 9 | –
[1], 346.15 K | – | 928 ± 9 | –
[1], 350.95 K | – | 922.7 ± 9 | –
[1], 355.65 K | – | 917 ± 9 | –
[1], 361.65 K | – | 913.2 ± 9 | –
[1], 367.15 K | – | 908 ± 9 | –
[1], 373.15 K | – | 903 ± 9 | –
[1], 378.45 K | – | 898.3 ± 9 | –
[1], 383.45 K | – | 893 ± 9 | –
[1], 390.65 K | – | 887.5 ± 9 | –
[1], 397.15 K | – | 883.1 ± 9 | –
[1], 404.35 K | – | 876.4 ± 9 | –
[1], 410.85 K | – | 869.6 ± 9 | –
[1], 417.05 K | – | 864.7 ± 9 | –
[1], 420.45 K | – | 861 ± 9 | –
[1], 424.75 K | – | 854.7 ± 9 | –
[1], 428.15 K | – | 854.2 ± 9 | –
[1], 434.25 K | – | 848.9 ± 9 | –
[1], 441.75 K | – | 842.2 ± 9 | –
[1], 448.55 K | – | 836 ± 9 | –
[1], 453.15 K | – | 832 ± 9 | –
[2], 4.5 kPa | 101.44 ± 1.6 | – | –
[2], 8.6 kPa | 118.64 ± 1.4 | – | –
[2], 13.8 kPa | 131.41 ± 1.2 | – | –
[2], 18.4 kPa | 139.2 ± 1.1 | – | –
[2], 22.8 kPa | 146.61 ± 1.1 | – | –
[2], 27.9 kPa | 153.00 ± 1.1 | – | –
[2], 33.2 kPa | 158.40 ± 1 | – | –
[2], 38.6 kPa | 163.80 ± 1 | – | –
[2], 42.9 kPa | 168.23 ± 1 | – | –
[2], 48.2 kPa | 171.66 ± 1 | – | –
[2], 52.3 kPa | 174.60 ± 1 | – | –
[2], 57.6 kPa | 178.1 ± 1 | – | –
[2], 62.3 kPa | 182.00 ± 1 | – | –
[2], 69.2 kPa | 186.00 ± 1 | – | –
[2], 72.7 kPa | 188.32 ± 1 | – | –
[2], 77 kPa | 190.7 ± 1 | – | –
[2], 82 kPa | 192.98 ± 1 | – | –
[2], 87.2 kPa | 195.31 ± 1 | – | –
[2], 91.4 kPa | 197.64 ± 1 | – | –
[2], 95.7 kPa | 199.20 ± 1 | – | –
[2], 100.7 kPa | 201.00 ± 1 | – | –
[2], 110.3 kPa | 205.41 ± 1 | – | –
[3], 288.15 K | – | – | 360.71 ± 3.6
[3], 293.65 K | – | – | 362.52 ± 3.6
[3], 298.15 K | – | – | 364.02 ± 3.7
[3], 303.55 K | – | – | 365.85 ± 3.7
[3], 308.95 K | – | – | 367.71 ± 3.7
[3], 313.65 K | – | – | 369.34 ± 3.7
[3], 318.45 K | – | – | 371.04 ± 3.7
[3], 323.65 K | – | – | 372.9 ± 3.8
[3], 328.25 K | – | – | 374.56 ± 3.8
[3], 333.85 K | – | – | 376.6 ± 3.8
[3], 338.75 K | – | – | 378.4 ± 3.8
[3], 343.05 K | – | – | 380 ± 3.8
[3], 348.55 K | – | – | 382.06 ± 3.8
[3], 353.15 K | – | – | 383.8 ± 3.9
[3], 358.45 K | – | – | 385.81 ± 3.9
[3], 363.35 K | – | – | 387.69 ± 3.9
[3], 368.05 K | – | – | 389.51 ± 3.9
[3], 373.75 K | – | – | 391.72 ± 3.9
[3], 378.85 K | – | – | 393.72 ± 4
[3], 383.35 K | – | – | 395.5 ± 4
[3], 388.65 K | – | – | 397.6 ± 4
[3], 393.25 K | – | – | 399.44 ± 4
[3], 398.45 K | – | – | 401.54 ± 4
[3], 403.15 K | – | – | 403.44 ± 4.1
[3], 408.65 K | – | – | 405.69 ± 4.1
[3], 413.15 K | – | – | 407.54 ± 4.1
[3], 418.85 K | – | – | 409.91 ± 4.1
[3], 423.95 K | – | – | 412.04 ± 4.1
[3], 428.45 K | – | – | 413.94 ± 4.2
[3], 433.15 K | – | – | 415.95 ± 4.2
[3], 438.55 K | – | – | 418.27 ± 4.2
[3], 443.65 K | – | – | 420.49 ± 4.2
[3], 448.15 K | – | – | 422.47 ± 4.2
[3], 453.65 K | – | – | 424.92 ± 4.3
